System: T1, HassOR67/Orco (HassOR67/HassOrco; OR67)
T1 construct: full-length ORF from antennal cDNA in pT7Ts; cRNA co-injected with Orco cRNA into Xenopus laevis oocytes; with Odorant receptor coreceptor
Assay: two-electrode voltage clamp, Xenopus oocytes
Format: cell-based, Helicoverpa assulta
Details: co-expressed with Orco; agonist; holding potential −80 mV; 1 × 10^−7 to 1 × 10^−3 M

Compound: CCCCCCCCC=O [nonanal]
- EC50: 8.49 µM
